Like-named read-outs stand apart in the source and are kept apart here. Marks after values point to notes of the source that are not given here.
Experiments:
[1] = Anti-cancer activity of precursor compounds
[2] = system: ZR-75-1 human mammary tumor; test: In vivo antitumor activity vs sc ZR-75-1 xenograft; conditions: for Tumor-Free-Surv/Total: sc ZR-75-1
U251 human CNS tumor = test: In vivo antitumor activity vs sc U251 xenograft
SK-MEL-28 melanoma = test: In vivo antitumor activity vs sc SK-MEL-28 xenograft; parameters: species or system human; conditions: IP 90 mg/kg/dose, Days 8-12
[3] = system: UISO-BCA-1 human mammary tumor; test: In vivo antitumor activity vs sc UISO-BCA-1 xenograft; conditions: IP 90 mg/kg/dose, Days 16-20
CAKI-1 human renal tumor = test: In vivo antitumor activity vs sc CAKI-1 xenograft
P388/CPA leukemia = test: Antitumor activity against IP-implanted P388/CPA leukemia in mice; assay type: in vivo, murine; conditions: for 50-DAY SURV/TOTAL / % ILS / APPROX. NET LOG10 CHANGE IN TUMOR BURDEN AT END OF Rx / MEDIAN DAY OF DEATH: P388/CPA, Q1D × 5 (1); for MEDIAN DAY OF DEATH: dying mice only
HT29 human colon tumor = test: In vivo antitumor activity vs sc HT29 xenograft
[4] = system: NCI-H460 nonsmall cell lung tumor; test: In vivo antitumor activity vs sc NCI-H460 xenograft; parameters: species or system human; conditions: IP 90 mg/kg/dose, Days 6-10
human MX-1 mammary tumor [5] = test: In vivo antitumor activity vs s.c.-implanted human MX-1 mammary tumor xenograft in athymic mice; conditions: sc MX-1
OVCAR-5 ovarian tumor = test: In vivo antitumor activity vs sc OVCAR-5 xenograft; parameters: species or system human; conditions: IP 90 mg/kg/dose, Days 12-16
human MX-1 mammary tumor [6] = test: In vivo antitumor activity vs i.c.-implanted human MX-1 mammary tumor xenograft in athymic mice; conditions: ic MX-1
MCF7 human mammary tumor = test: In vivo antitumor activity vs sc MCF7 xenograft
P388/L-PAM leukemia = conditions: for MEDIAN DAY OF DEATH: dying mice only
SF-295 CNS tumor = test: In vivo antitumor activity vs sc SF-295 xenograft; parameters: species or system human; conditions: IP 90 mg/kg/dose, Days 9-13
[7] = system: NCI-H82 small cell lung tumor; test: In vivo antitumor activity vs sc NCI-H82 xenograft; parameters: species or system human
P388/BCNU leukemia = test: Antitumor activity against IP-implanted P388/BCNU leukemia in mice; conditions: for MEDIAN DAY OF DEATH: dying mice only
[8] = P388/0, IP 60.0 mg/kg/dose, Q1D × 5 (1)
[9] = P388/0, IP 90.0 mg/kg/dose, Q1D × 5 (1)
[10] = P388/0, IP 135.0 mg/kg/dose, Q1D × 5 (1)
[11] = highest nontoxic doses evaluated, versus DM-PEN
[12] = highest nontoxic doses evaluated, versus PEN
[13] = sc CAKI-1, IP 90 mg/kg/dose, Days 19-23
[14] = sc HT29, IP 90 mg/kg/dose, Days 14-18
[15] = sc MCF7, IP 60 mg/kg/dose, Days 14-18
[16] = P388/L-PAM, IP 60.0 mg/kg/dose, Q1D × 5 (1)
[17] = P388/L-PAM, IP 90.0 mg/kg/dose, Q1D × 5 (1)
[18] = P388/L-PAM, IP 135.0 mg/kg/dose, Q1D × 5 (1)
[19] = sc NCI-H82, IP 60 mg/kg/dose, Days 13-17
[20] = P388/BCNU, IP 60.0 mg/kg/dose, Q1D × 5 (1)
[21] = P388/BCNU, IP 90.0 mg/kg/dose, Q1D × 5 (1)
[22] = P388/BCNU, IP 135.0 mg/kg/dose, Q1D × 5 (1)
[23] = optimal doses (LD10 or less), schedule QD1-5, administered LP.

SMILES: CCOc1nc(C(Cl)(Cl)Cl)c(Cl)c(OCC)c1Cl [3,5-dichloro-4,6-diethoxy-2-(trichloromethyl)pyridine]
- anti-cancer activity (in words) [1]: active anti-cancer activity

SMILES: COc1nc(C(Cl)(Cl)Cl)c(Cl)c(OC(C)=O)c1Cl [DM-A-PEN]
- activity (in words) ([2]; s.c.-implanted ZR-75-1 human mammary tumor): moderate to modest activity
- Tumor-Free-Surv/Total ([2]; IP 60 mg/kg/dose, Days 10-14): 0/5
- Tumor-Free-Surv/Total ([2]; IP 90 mg/kg/dose, Days 8-12): 0/5
- 50-DAY SURV/TOTAL (P388/0 leukemia; [8]): 0/6
- % ILS (P388/0 leukemia; [8]): +72%
- APPROX. NET LOG10 CHANGE IN TUMOR BURDEN AT END OF Rx (P388/0 leukemia; [8]): −3.1
- MEDIAN DAY OF DEATH (P388/0 leukemia; P388/0, IP 60.0 mg/kg/dose, Q1D × 5 (1), dying mice only): 19.0
- 50-DAY SURV/TOTAL (P388/0 leukemia; [9]): 0/6
- % ILS (P388/0 leukemia; [9]): +95%
- APPROX. NET LOG10 CHANGE IN TUMOR BURDEN AT END OF Rx (P388/0 leukemia; [9]): −5.0
- 50-DAY SURV/TOTAL (P388/0 leukemia; [10]): 0/6
- % ILS (P388/0 leukemia; [10]): +159%
- APPROX. NET LOG10 CHANGE IN TUMOR BURDEN AT END OF Rx (P388/0 leukemia; [10]): ~−6.8
- Toxicity / lethality level at the dosage (LD) (P388/0 leukemia; [10]): LD33
- more active than DM-PEN against P388/O (difference in log cell kill) (P388/0 leukemia; [11]): 1.9 log cell kill
- more active than PEN against P388/0 (difference in log cell kill) (P388/0 leukemia; [12]): 0.4 log cell kill
- activity (in words) (U251 human CNS tumor; s.c.-implanted U251 human CNS tumor): moderate to modest activity
- Tumor-Free-Surv/Total (U251 human CNS tumor; sc U251, IP 90 mg/kg/dose, Days 19-23): 0/5
- T-C (SK-MEL-28 melanoma): 0.7 days
- Tumor-Free-Surv/Total (SK-MEL-28 melanoma): 0/5
- T-C [3]: -2.4 days
- Tumor-Free-Surv/Total [3]: 0/5
- activity (in words) (CAKI-1 human renal tumor; s.c.-implanted CAKI-1 human renal tumor): moderate to modest activity
- T-C (CAKI-1 human renal tumor; [13]): 8.4 days
- Tumor-Free-Surv/Total (CAKI-1 human renal tumor; [13]): 0/5
- 50-DAY SURV/TOTAL (P388/CPA leukemia; IP 60.0 mg/kg/dose): 0/6
- % ILS (P388/CPA leukemia; IP 60.0 mg/kg/dose): +54%
- APPROX. NET LOG10 CHANGE IN TUMOR BURDEN AT END OF Rx (P388/CPA leukemia; IP 60.0 mg/kg/dose): −1.1
- MEDIAN DAY OF DEATH (P388/CPA leukemia; IP 60.0 mg/kg/dose): 17.0
- 50-DAY SURV/TOTAL (P388/CPA leukemia; IP 90.0 mg/kg/dose): 0/6
- % ILS (P388/CPA leukemia; IP 90.0 mg/kg/dose): +86%
- APPROX. NET LOG10 CHANGE IN TUMOR BURDEN AT END OF Rx (P388/CPA leukemia; IP 90.0 mg/kg/dose): −3.1
- 50-DAY SURV/TOTAL (P388/CPA leukemia; IP 135.0 mg/kg/dose): 0/6
- APPROX. NET LOG10 CHANGE IN TUMOR BURDEN AT END OF Rx (P388/CPA leukemia; IP 135.0 mg/kg/dose): −5.7
- MEDIAN DAY OF DEATH (P388/CPA leukemia; IP 135.0 mg/kg/dose): 25.0
- more active than DM-PEN against P388/CPA (difference in log cell kill) (P388/CPA leukemia; [11]): 4.6 log cell kill
- more active than PEN against P388/CPA (difference in log cell kill) (P388/CPA leukemia; [12]): 7.4 log cell kill
- activity (in words) (HT29 human colon tumor; s.c.-implanted HT29 human colon tumor): moderate to modest activity
- T-C (HT29 human colon tumor; [14]): 5.8 days
- Tumor-Free-Surv/Total (HT29 human colon tumor; [14]): 0/5
- T-C [4]: -0.6 days
- Tumor-Free-Surv/Total [4]: 0/5
- Tumor-Free-Surv/Total (human MX-1 mammary tumor [5]; IP 60 mg/kg/dose (LD20), Days 15-19): 3/5
- Tumor-Free-Surv/Total (human MX-1 mammary tumor [5]; IP 60 mg/kg/dose, Days 14-18): 4/5
- Dose (mg/kg) with observed lethality level (human MX-1 mammary tumor [5]; IP 60 mg/kg/dose, Days 15-19): 60 (LD20)
- T-C (human MX-1 mammary tumor [5]; IP 90 mg/kg/dose, Days 12-16): >41.0 days
- Tumor-Free-Surv/Total (human MX-1 mammary tumor [5]; IP 90 mg/kg/dose, Days 12-16): 5/5
- Tumor-Free-Surv/Total (human MX-1 mammary tumor [5]; oral (gavage) 135 mg/kg/dose, Days 13-17): 5/5
- T-C (OVCAR-5 ovarian tumor): 4.0 days
- Tumor-Free-Surv/Total (OVCAR-5 ovarian tumor): 0/5
- Median % ILS (dying mice only) (human MX-1 mammary tumor [6]; IP 60 mg/kg/dose, Days 1-5): +60%
- Median % ILS (dying mice only) (human MX-1 mammary tumor [6]; oral (gavage) 135 mg/kg/dose, Days 1-5): +88%
- activity (in words) (MCF7 human mammary tumor; s.c.-implanted MCF7 human mammary tumor): moderate to modest activity
- T-C (MCF7 human mammary tumor; [15]): 7.1 days
- Tumor-Free-Surv/Total (MCF7 human mammary tumor; [15]): 0/5
- 50-DAY SURV/TOTAL (P388/L-PAM leukemia; [16]): 0/6
- % ILS (P388/L-PAM leukemia; [16]): +14%
- APPROX. NET LOG10 CHANGE IN TUMOR BURDEN AT END OF Rx (P388/L-PAM leukemia; [16]): +1.2
- MEDIAN DAY OF DEATH (P388/L-PAM leukemia; [16]): 18.0
- 50-DAY SURV/TOTAL (P388/L-PAM leukemia; [17]): 0/6
- % ILS (P388/L-PAM leukemia; [17]): +14%
- APPROX. NET LOG10 CHANGE IN TUMOR BURDEN AT END OF Rx (P388/L-PAM leukemia; [17]): +1.2
- MEDIAN DAY OF DEATH (P388/L-PAM leukemia; [17]): 18.0
- 50-DAY SURV/TOTAL (P388/L-PAM leukemia; [18]): 0/6
- % ILS (P388/L-PAM leukemia; [18]): +35%
- APPROX. NET LOG10 CHANGE IN TUMOR BURDEN AT END OF Rx (P388/L-PAM leukemia; [18]): −0.8
- Toxicity / lethality level at the dosage (LD) (P388/L-PAM leukemia; [18]): LD17
- MEDIAN DAY OF DEATH (P388/L-PAM leukemia; [18]): 19.0
- more active than PEN or DM-PEN against P388/L-PAM (difference in log cell kill) (P388/L-PAM leukemia; highest nontoxic doses evaluated, versus PEN or DM-PEN): 0.2-0.3 log cell kill
- activity in the P388/L-PAM tumor model (in words) (P388/L-PAM leukemia; mouse, in vivo): none of the three showed significant activity
- T-C (SF-295 CNS tumor): 0.7 days
- Tumor-Free-Surv/Total (SF-295 CNS tumor): 0/5
- activity (in words) ([7]; s.c.-implanted NCI-H82 small cell lung tumor): moderate to modest activity
- T-C [7, 19]: 7.2 days
- Tumor-Free-Surv/Total [7, 19]: 0/5
- 50-DAY SURV/TOTAL (P388/BCNU leukemia; [20]): 1/6
- % ILS (P388/BCNU leukemia; [20]): +44%
- APPROX. NET LOG10 CHANGE IN TUMOR BURDEN AT END OF Rx (P388/BCNU leukemia; [20]): 0
- MEDIAN DAY OF DEATH (P388/BCNU leukemia; [20]): 13.0
- 50-DAY SURV/TOTAL (P388/BCNU leukemia; [21]): 0/6
- % ILS (P388/BCNU leukemia; [21]): +77%
- APPROX. NET LOG10 CHANGE IN TUMOR BURDEN AT END OF Rx (P388/BCNU leukemia; [21]): −2.3
- MEDIAN DAY OF DEATH (P388/BCNU leukemia; [21]): 16.0
- 50-DAY SURV/TOTAL (P388/BCNU leukemia; [22]): 0/6
- APPROX. NET LOG10 CHANGE IN TUMOR BURDEN AT END OF Rx (P388/BCNU leukemia; [22]): −4.1
- Toxicity / lethality level at the dosage (LD) (P388/BCNU leukemia; [22]): LD17
- MEDIAN DAY OF DEATH (P388/BCNU leukemia; [22]): 21.0
- more active than DM-PEN against P388/BCNU (difference in log cell kill) (P388/BCNU leukemia; [11]): 1.5 log cell kill
- more active than PEN against P388/BCNU (difference in log cell kill) (P388/BCNU leukemia; [12]): 3.5 log cell kill

SMILES: COc1nc(C(Cl)(Cl)Cl)c(Cl)c(OC(=O)c2cccs2)c1Cl [DM-TC-PEN]
- Tumor-Free-Surv/Total (human MX-1 mammary tumor [5]; IP 90 mg/kg/dose, Days 12-16): 4/5
- activity against i.c.-implanted tumor in comparison to PEN and DM-PEN (in words) (human MX-1 mammary tumor [6]): significant activity
- Median % ILS (dying mice only) (human MX-1 mammary tumor [6]; IP 135 mg/kg/dose, Days 1-5): +100%
- Tumor-Free-Surv/Total (human MX-1 mammary tumor [6]; IP 135 mg/kg/dose, Days 1-5): 0/5
- Median % ILS (based on dying mice only) (human MX-1 mammary tumor [6]; [23]): 100^d %
- Survivors (human MX-1 mammary tumor [6]; [23]): 0/5

Reference: patent publication US6376518B1, “Acyl derivatives of 4-demethylpenclomedine, use thereof and preparation thereof” (Southern Research Institute, priority 1999, dated 2002)
